US12479832B2, “Liver targeting drug, pharmaceutical composition and use thereof” (priority 2019, dated 2025)
Values joined by “and” are separate entries in the source; they are usually repeats but may differ in a detail not shown here. Identical values can stand only once. “Also recorded” adds a separate entry of the source.

Assays:
hepatocellular carcinoma = conditions: cited from earlier work
hepatitis B virus = conditions: animal models; cited from earlier work
[1] = Pharmacokinetic study: Birinapant in plasma and liver after i.v. Birinapant or I-5-S in rats; conditions: rat, in vivo; for half-life: Birinapant measured after i.v. Birinapant 5 mg/kg, rats
Experimental: 1. Formulation of preparation and dosing: An appropriate amount of the test sample was precisely weighed, and mixed with an appropriate volume of a solvent (5% DMSO/5% Solutol/90% water) to obtain a clear solution or a homogeneous suspension. The preparation was administered to animals within 4 hours after formulation. The dosage formulation would be administered […] in accordance with facility standard operating procedures. The dosage volume would be determined by the body weights of the animals collected on the morning of administering. 2. Blood collection: Blood (approx. 0.2 ml per point in time) would be drawn each time from the jugular vein of every animal. All blood samples would be transferred to pre-cooled commercial EDTA-K2 test tubes, and kept on wet ice until they were centrifuged. 3. Plasma processing: Blood samples would be centrifuged (3200 rpm, 10 min) at approximately 4° C. Plasma was collected separately and transferred to pre-labeled PP tubes in wet ice at each point in time, and then immediately precipitated by ACN (6 IS) (the ratio of plasma:ACN was 1:4). Centrifugation (10 min, 12,000 rpm) was carried out again to obtain a supernatant. The supernatant was quickly frozen on dry ice and kept at -70±10° C. before LC/MS/MS analysis. 4. Liver processing: Liver tissues were collected at each point in time, washed twice with pre-cooled deionized water, and dried with filter paper. Liver tissues were immediately homogenized with 10-times volume of a methanol-water solution (1:2, v/v). After homogenization, a portion of liver tissue homogenate (e.g., 200 μL of homogenate) was immediately measured. After precipitated on wet ice, the samples were centrifuged, and a supernatant was collected and stored in a refrigerator at -70±10° C. before LC-MS/MS analysis. From the remaining liver homogenate, 800 μL of the homogenate was measured as a spare. […] After the solution of compound Birinapant was intravenously injected into rats, the concentrations of the active compound Birinapant in the rats were determined in the plasma and liver, respectively (see Table 1). After the solution of compound […] was intravenously injected into rats, the concentrations of the active compound Birinapant in the rats were determined in the plasma and liver, respectively (see Table 2).

[2] = cited from earlier work
[3] = Pharmacokinetic test of Compound A or B given orally or intravenously to rats (plasma and liver); assay type: in vivo; conditions: administered orally or intravenously
Experimental: To address the above-mentioned problems, the inventors have conducted intensive researches on analogues of Birinapant in the hope of reducing the toxic and side effects on the circulating system while maintaining or improving the therapeutic effect. […] Under the same conditions as described above, after rats were orally or intravenously injected with a solution of Compound A or B, the concentrations of Compound A or B and drug Birinapant in rats were measured in plasma and liver, respectively. […] Therefore, such prodrugs would have no value of application for Birinapant.

SMILES: CC[C@H](NC(=O)[C@H](C)NC)C(=O)N1C[C@@H](O)C[C@H]1Cc1c(-c2[nH]c3cc(F)ccc3c2C[C@@H]2C[C@H](O)CN2C(=O)[C@H](CC)NC(=O)[C@H](C)NC)[nH]c2cc(F)ccc12 [Birinapant]
- survival in dosed mice (hepatocellular carcinoma): significantly prolonged
- inhibition of hepatitis B virus, particularly replication of HBsAg (hepatitis B virus): effective in inhibiting hepatitis B virus
- C0 ([1]; iv): 3470 ng/mL
- AUC0-24 ([1]; iv, 5 mg/kg): 40566 ng·h/g
- AUC0-inf ([1]; iv, 5 mg/kg): 76641 ng·h/g
- AUC0-last ([1]; iv, 5 mg/kg): 66712 ng·h/g
- AUC(0-inf) ([1]; iv, 5 mg/kg): 1090 ng·h/mL
- C0 ([1]; iv, 5 mg/kg): 3470 ng/mL
- Cmax ([1]; iv, 5 mg/kg): 3470 ng/mL and 4280 ng/g
- Kp ([1]; iv, 5 mg/kg): 64
- Tmax ([1]; iv, 5 mg/kg): 0.25 h
- Vd ([1]; iv, 5 mg/kg): 36.3 L/kg
- clearance ([1]; iv, 5 mg/kg): 76.3 mL/min/kg
- AUC(0-t) ([1]; iv, 5 mg/kg, AUC0-24): 967 ng·h/mL
- AUC(0-t) ([1]; iv, 5 mg/kg, AUC0-last): 1040 ng·h/mL
- half-life ([1]; iv, 5 mg/kg, liver): 22.9 h
- half-life ([1]; iv, 5 mg/kg, plasma): 14.6 h
- side effect in patients ([2]; patients, high doses): paralysis of facial muscles
- safe dose ([2]; per week or twice weekly, cancer clinical trials): 17 mg/M2
- Dose Limited Toxicity ([2]; twice weekly, limited by paralysis of facial muscles, cancer clinical trials): 22 mg/M2

SMILES: CC[C@H](NC(=O)[C@H](C)N(C)C(=O)OCc1ccccc1)C(=O)N1C[C@@H](O)C[C@H]1Cc1c(-c2[nH]c3cc(F)ccc3c2C[C@@H]2C[C@H](O)CN2C(=O)[C@H](CC)NC(=O)[C@H](C)N(C)C(=O)OCc2ccccc2)[nH]c2cc(F)ccc12 [Compound A]
- degradation by in vivo esterases to release the active drug Birinapant [3]: have not been degraded at all; also recorded: could not be degraded by in vivo esterase at all
- excreted and recovered [3]: 100%

SMILES: CCCCCOC(=O)N(C)[C@@H](C)C(=O)N[C@@H](CC)C(=O)N1C[C@@H](O)C[C@H]1Cc1c(-c2[nH]c3cc(F)ccc3c2C[C@@H]2C[C@H](O)CN2C(=O)[C@H](CC)NC(=O)[C@H](C)N(C)C(=O)OCCCCC)[nH]c2cc(F)ccc12 [Compound B]
- degradation by in vivo esterases to release the active drug Birinapant [3]: have not been degraded at all; also recorded: could not be degraded by in vivo esterase at all
- excreted and recovered [3]: 100%

SMILES: CC[C@H](NC(=O)[C@H](C)NC)C(=O)N1C[C@@H](OC(C)=O)C[C@H]1Cc1c(-c2[nH]c3cc(F)ccc3c2C[C@@H]2C[C@H](OC(C)=O)CN2C(=O)[C@H](CC)NC(=O)[C@H](C)NC)[nH]c2cc(F)ccc12 [Compound I-5-S]
- conversion of the prodrug into the active drug Birinapant [1]: metabolized into the active pharmaceutical ingredient Birinapant
- reduction of the maximum concentration of Birinapant in the plasma in comparison to direct use of Birinapant ([1]; iv): 94%
- reduction of total drug exposure in the plasma in comparison to direct use of Birinapant ([1]; iv): 49%
- total exposure of Birinapant released in liver relative to direct use of Birinapant ([1]; iv): 2.4 times
- AUC Ratio (L/P) ([1]; iv, 5.97 mg/kg): 194
